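Step 1: Grow cells in 96-well plates. Step 2: Expose to compound for 48 hours at 5 concentrations. Step 3: Interpolate endpoints linearly; if unreached, use highest concentration. At the TGI there is no net growth.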
Experiments:
Assay in all cases: NCI tumour cell line growth inhibition, 48 h
HOP-62 NSCLC = system: HOP-62 NSCLC
K-562 leukemia = system: K-562 leukemia
SK-OV-3 ovarian = system: SK-OV-3 ovarian
RXF 393 renal = system: RXF 393 renal
HCT-116 colon = system: HCT-116 colon
MDA-N = system: MDA-N
KM12 colon = system: KM12 colon
HT29 colon = system: HT29 colon
SF-539 CNS = system: SF-539 CNS
MOLT-4 leukemia = system: MOLT-4 leukemia
U251 CNS = system: U251 CNS
IGROV1 ovarian = system: IGROV1 ovarian
T-47D breast = system: T-47D breast
M14 melanoma = system: M14 melanoma
SK-MEL-2 melanoma = system: SK-MEL-2 melanoma
SR leukemia = system: SR leukemia
PC-3 prostate = system: PC-3 prostate
UO-31 renal = system: UO-31 renal
786-0 renal = system: 786-0 renal
OVCAR-8 ovarian = system: OVCAR-8 ovarian
MDA-MB-231 breast = system: MDA-MB-231 breast
HS 578T breast = system: HS 578T breast
UACC-257 melanoma = system: UACC-257 melanoma
DU-145 prostate = system: DU-145 prostate
NCI-H522 lung = system: NCI-H522 lung
EKVX NSCLC = system: EKVX NSCLC
NCI-H23 lung = system: NCI-H23 lung
ACHN renal = system: ACHN renal
OVCAR-5 ovarian = system: OVCAR-5 ovarian
SW-620 colon = system: SW-620 colon
OVCAR-3 ovarian = system: OVCAR-3 ovarian
OVCAR-4 ovarian = system: OVCAR-4 ovarian
SNB-19 CNS = system: SNB-19 CNS
TK-10 renal = system: TK-10 renal
A498 renal = system: A498 renal
A549 NSCLC = system: A549 NSCLC
HCC-2998 colon = system: HCC-2998 colon
BT-549 breast = system: BT-549 breast
CCRF-CEM leukemia = system: CCRF-CEM leukemia
MCF7 breast = system: MCF7 breast
SN12C renal = system: SN12C renal
SK-MEL-5 melanoma = system: SK-MEL-5 melanoma
SF-268 CNS = system: SF-268 CNS
CAKI-1 renal = system: CAKI-1 renal
HOP-92 NSCLC = system: HOP-92 NSCLC
SK-MEL-28 melanoma = system: SK-MEL-28 melanoma
NCI/ADR-RES ovarian = system: NCI/ADR-RES ovarian
UACC-62 melanoma = system: UACC-62 melanoma
HCT-15 colon = system: HCT-15 colon
SNB-75 CNS = system: SNB-75 CNS
COLO 205 colon = system: COLO 205 colon
MALME-3M melanoma = system: MALME-3M melanoma
NCI-H226 lung = system: NCI-H226 lung
NCI-H460 lung = system: NCI-H460 lung
MDA-MB-435 = system: MDA-MB-435
LOX IMVI melanoma = system: LOX IMVI melanoma
RPMI-8226 leukemia = system: RPMI-8226 leukemia
SF-295 CNS = system: SF-295 CNS
HL-60(TB) leukemia = system: HL-60(TB) leukemia

Measured: TGI

COc1cc(Cc2cnc(N)nc2N)cc(OC)c1OCCCNc1ccc([N+](=O)[O-])cc1
29.5 µM: SK-MEL-2 melanoma
25.3 µM: T-47D breast
25.9 µM: UACC-257 melanoma
26.3 µM: NCI-H522 lung
19.2 µM: M14 melanoma
31.4 µM: HCC-2998 colon
37.8 µM: ACHN renal | HCT-15 colon
22.3 µM: PC-3 prostate
32.7 µM: TK-10 renal | SNB-75 CNS
27.5 µM: MDA-MB-231 breast
32 µM: EKVX NSCLC
26.5 µM: UO-31 renal | MCF7 breast
36.4 µM: HOP-92 NSCLC
30.4 µM: HCT-116 colon
33.6 µM: OVCAR-4 ovarian
18.9 µM: SK-MEL-5 melanoma
66.6 µM: SK-OV-3 ovarian
34.2 µM: SW-620 colon
30.1 µM: OVCAR-8 ovarian
35.5 µM: OVCAR-5 ovarian
32.2 µM: KM12 colon
41.4 µM: SN12C renal
39.3 µM: A498 renal
74 µM: SF-268 CNS
28.3 µM: IGROV1 ovarian
26 µM: NCI-H460 lung
25.2 µM: RXF 393 renal
35.2 µM: A549 NSCLC | CCRF-CEM leukemia
> 100 µM: K-562 leukemia | HS 578T breast | CAKI-1 renal
28 µM: 786-0 renal
29.8 µM: MDA-MB-435
31.8 µM: NCI-H23 lung
28.4 µM: NCI-H226 lung
29.2 µM: U251 CNS
30.2 µM: DU-145 prostate
32.9 µM: MDA-N
14.8 µM: HT29 colon
60 µM: NCI/ADR-RES ovarian
26.7 µM: UACC-62 melanoma
26.1 µM: SF-539 CNS
25.8 µM: MALME-3M melanoma
31.1 µM: BT-549 breast
27.1 µM: SK-MEL-28 melanoma
28.1 µM: OVCAR-3 ovarian
8.66 µM: MOLT-4 leukemia
24.3 µM: SR leukemia
27.4 µM: HOP-62 NSCLC | COLO 205 colon
27 µM: SNB-19 CNS

CCN(CC)CC1CN=C(N)O1 (configuration not stated)
not listed: SK-OV-3 ovarian | HT29 colon | HS 578T breast | NCI-H522 lung | TK-10 renal | SF-268 CNS | MALME-3M melanoma | HL-60(TB) leukemia
> 100 µM: all other assays above

COC(=O)C(=O)C(C(=O)C(=O)Nc1ccccc1OC)c1nc2ccc([N+](=O)[O-])cc2[nH]c1=O (configuration not stated)
not listed: DU-145 prostate | NCI-H23 lung | COLO 205 colon
> 100 µM: all other assays above

CC(=O)C(C(C)=O)[C@@H]1OC(C)(C)O[C@@H]1[C@H]1COC(C)(C)O1
52.4 µM: MALME-3M melanoma
81.2 µM: NCI-H522 lung
44.9 µM: SN12C renal
79.1 µM: EKVX NSCLC
70.1 µM: MDA-N
not listed: SK-OV-3 ovarian | T-47D breast | CCRF-CEM leukemia | SNB-75 CNS
> 100 µM: all other assays above
